According to patent US5045566A, “Novel imidate insecticides” (ICI Americas Inc., priority 1989, dated 1991):

Key:
Format in all cases: in vivo
[1] = system: Black Bean Aphid [Aphis fabae (Scop.)]; test: Black bean aphid spray test on nasturtium (BBA), 48 hours; settings: percent of test compound in sprayed solution
Outline: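 LC50, given as percent test compound in the sprayed liquid, was calculated from dosage-mortality curves using concentrations from 0.05% downward. Sprays in 50:50 acetone-water went to runoff on ~5 cm nasturtiums carrying 25-50 aphids of mixed ages, one day after infestation. Deaths were counted 48 h later under greenhouse conditions.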

[2] = system: Cabbage Looper [Trichoplusia ni (Hubner)]; test: Cabbage looper leaf dip (CL), 3-5 days; settings: percent in solution, second-instar larvae
Outline: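 Steps: dilute compound in 50-50 acetone-water from 0.1% downward; immerse cotyledon pieces 2-3 s and dry; place in humid petri dishes with five second-instar larvae; record mortality at 3-5 days. Dosage-mortality curves yield LC50 as percent in solution.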

[3] = system: Housefly [Musca domestica]; test: Housefly contact mortality in dishes (HF), 48 hours; settings: μg of test compound per 25 female flies
Outline: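 LC50, as μg compound per 25 female flies, comes from dosage-mortality curves with doses from 100 μg downward. Residues were made by evaporating acetone plus 0.01% peanut oil in dishes, onto which 1-2-day-old females were caged; deaths were counted after 48 hours.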

[4] = system: Aster Leafhopper [Macrosteles fascifrens (Stal)]; test: Aster leafhopper on dipped oat seedlings (LH), 48 hours; settings: percent in solution, adults/nymphs
Outline: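 LC50 values, given as percent of test compound in the dip solution, were derived from dosage-mortality curves over concentrations from 0.05% downward. Mortality was counted 48 hours after ten leafhopper adults/nymphs were enclosed on treated seedlings. The seedlings were oats, about 10 cm tall, briefly dipped in 50-50 acetone-water.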

[5] = system: Beet Armyworm (Spodoptera exigua); test: Beet armyworm leaf dip (BAW), 5 days; settings: percent in solution; second-instar larvae; five days
Outline: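 Five second-instar larvae per dish fed on dried sugar beet leaves previously dipped 2–3 s in acetone-water (1:1) test solutions up to 0.1%. Kept at high humidity, with deaths counted after five days; LC50 as % in solution via dosage-mortality curves.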

[6] = system: Tobacco Budworm [Heliothis virescens (Fabricius)] eggs; test: Tobacco budworm eggs (TBW-E); settings: percent in solution; 2-day old eggs
Outline: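 Mortality of dipped eggs served as read-out, recorded after untreated controls hatched and began feeding. Treatments used acetone solutions from 0.1% downward, with eggs incubated at 78° F; LC50 is expressed as percent of compound in the solution.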

[7] = system: Tobacco Budworm [Heliothis virescens (Fabricius)] larvae; test: Tobacco budworm larvae, contact (TBW-C), 5 days; settings: percent in solution, second-instar larvae
Outline: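 Cotton cotyledons dipped 2–3 s in compound in 50-50 acetone-water, dried, then infested with 5 second-instar larvae and held 5 days at high humidity. Mortality scored; LC50 from dosage-mortality curves, expressed as percent compound in solution, concentrations from 0.1% downward.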

[8] = system: Rice water weevil [Lissorhoptrus oryzophilus (Kuschel)]; test: Rice water weevil topical (RWW), 48 hours; settings: μg of test compound per weevil, female adults
Outline: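 Female adult weevils (ten per dose) received 1 µl acetone droplets on the ventral abdomen and were held at about 25 °C with wet cotton and rice foliage. Mortality read at 48 h; LC50 from dose-mortality curves, given as µg compound per weevil, top dose 2.5 µg per weevil.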

[9] = system: Maize weevil [Sitophilus zeamais (Motschulsky)]; test: Maize weevil on dipped corn seeds (MW), 48 hours; settings: percent in solution, adult weevils
Outline: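 LC50, given as percent of compound in dipping solution, comes from dosage-mortality curves over concentrations descending from 0.01%. Four corn seeds soaked 2-3 s in 50:50 acetone:water solution were dried and held with 10 adult weevils, about 25° C, mortality read after 48 h.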

[10] = system: two-spotted mite [Tetranychus urticae (Koch)]; test: Two-spotted mite activity; settings: initial testing level 0.05% in solution
Description: The compounds in Tables 1 and 2 were also tested for activity against the two-spotted mite [Tetranychus urticae (Koch)] and Western spotted cucumber beetle larvae [Diabrotica undecimpunctata undecimpunctata (Mannerheim)]. Initial testing levels were 0.05% (in solution) against the mite, and 25 ppm (in soil) against the beetle.

Row | Compound | LC50 BBA [1] | LC50 CL [2] | LC50 HF [3] | LC50 LH [4] | LC50 BAW [5] | LC50 TBW E (eggs) [6] | LC50 TBW C (contact) [7] | LC50 RWW [8] | LC50 MW [9] | activity in tests against twospotted mite [10]
1 | CC(C)C(=Nc1ccc2c(c1)OCO2)OCc1cccc(Oc2ccccc2)c1 [Compound 180] | 0.0003% | 0.0004% | 2 µg | 0.0015% | 0.005% | 0.03% | 0.003% | > 2.5 µg | 0.008% | –
2 | CC(C)C(=Nc1ccc(F)c(Cl)c1)OCc1ccc(F)c(Oc2ccc(F)cc2)c1 [Compound 216] | 0.00025% | 0.000007% | 2 µg | 0.00025% | 0.0007% | 0.005% | 0.00018% | 0.067 µg | 0.0017% | –
3 | CC(C)C(=Nc1ccc(F)c(Cl)c1)OCc1cccc(Oc2ccc(Cl)cc2)c1 [Compound 239] | 0.001% | 0.00015% | 14 µg | 0.002% | 0.005% | 0.025% | 0.0005% | > 2.5 µg | 0.006% | –
4 | CC(C)C(=Nc1ccc(F)c(Cl)c1)OCc1ccc(F)c(Oc2ccc(Cl)cc2)c1 [Compound 267] | 0.0003% | 0.00008% | 8.4 µg | 0.002% | 0.0012% | 0.015% | 0.0003% | 0.11 µg | 0.0027% | –
5 | CC(C)C(=Nc1ccc(Cl)cc1)OCc1cccc(Oc2ccc(Cl)cc2)c1 [Compound 269] | > 0.05% | 0.0003% | 25 µg | 0.003% | 0.0024% | 0.04% | 0.001% | > 2.5 µg | > 0.01% | –
6 | CC(C)C(=Nc1ccc(F)c(Br)c1)OCc1ccc(F)c(Oc2ccc(F)cc2)c1 [Compound 273] | 0.0003% | 0.000018% | 7 µg | 0.0003% | 0.0017% | 0.015% | 0.00025% | > 2.5 µg | 0.004% | –
7 | CC(C)C(=Nc1ccc(F)c(C(F)(F)F)c1)OCc1ccc(F)c(Oc2ccc(F)cc2)c1 [Compound 277] | 0.0008% | 0.00001% | 4 µg | 0.0003% | 0.005% | 0.013% | 0.0005% | 0.065 µg | > 0.01% | –
8 | CC(C)C(=Nc1ccc(F)c(F)c1)OCc1ccc(F)c(Oc2ccc(F)cc2)c1 [Compound 278] | 0.0005% | 0.00002% | 3 µg | 0.0003% | 0.0012% | 0.008% | 0.00026% | 0.085 µg | 0.0063% | –
9 | CC(C)C(=Nc1ccc(OC(F)(F)F)cc1)OCc1ccc(F)c(Oc2ccc(F)cc2)c1 [Compound 286] | 0.0003% | 0.000024% | 34 µg | 0.0006% | 0.0004% | 0.005% | 0.00017% | 0.09 µg | 0.0039% | –
10 | CC(C)C(=Nc1ccc(OC(F)(F)F)cc1)OCc1ccc(F)c(Oc2ccc(Cl)cc2)c1 [Compound 323] | > 0.05% | 0.0006% | > 100 µg | 0.05% | 0.0025% | 0.045% | 0.00065% | 0.16 µg | 0.0075% | –
11 | CC(C)C(=Nc1ccc(F)c(Cl)c1F)OCc1cccc(Oc2ccc(F)cc2)c1 [Compound 352] | 0.0003% | 0.000065% | 4.6 µg | 0.0004% | > 0.1% | > 0.1% | 0.0004% | > 2.5 µg | 0.0075% | –
12 | CC(C)C(=Nc1ccc(OC(F)(F)C(F)Cl)cc1)OCc1cccc(Oc2ccccc2)c1 (stereo not drawn) [Compound 418] | > 0.05% | > 0.1% | > 100 µg | – | – | > 0.1% | – | – | > 0.01% | demonstrated activity
13 | CC(C)C(=Nc1ccc(OC(F)(F)C(F)Cl)cc1)OCc1ccc(F)c(Oc2ccccc2)c1 (stereo not drawn) [Compound 419] | > 0.05% | > 0.1% | > 100 µg | – | – | > 0.1% | – | – | > 0.01% | demonstrated activity
